Like-named read-outs stand apart in the source and are kept apart here.
Assays:
Type in all cases: cell-based
[1] = system: varicella zoster virus (VZV) YS viral strain; assay: VZV plaque reduction in tissue culture, YS strain; settings: read-out: EC50 VZV YS
[2] = system: human embryonic lung cells; assay: Cytotoxicity to human embryonic lung cells; settings: minimum cytotoxic concentration to human embryonic lung cells
Source text: MCC AM is the minimum cytotoxic concentration to human embryonic lung cells.

[3] = Cytotoxicity to human embryonic lung cells; settings: 50% cytotoxic concentration to human embryonic lung cells
[4] = system: varicella zoster virus (VZV) OKA viral strain; assay: microbe, parasite or virus in culture; settings: read-out: EC50 VZV OKA
[5] = system: varicella zoster virus (VZV) viral strain 07; TK deficient; assay: microbe, parasite or virus in culture; settings: read-out: EC50 VZV TK-07
[6] = system: varicella zoster virus (VZV) viral strain YS; TK deficient; assay: VZV plaque reduction in tissue culture, strain YS, TK deficient; settings: read-out: EC50 VZV TK-YS
[7] = system: human embryonic lung cells; assay: Cytotoxicity to human embryonic lung cells; settings: 50% cytotoxic concentration to human embryonic lung cells
[8] = Human alphaherpesvirus 3, 120 h, reduce viral plaque formation after 5 days by 50% compared to untreated control, YS viral strain
[9] = Human alphaherpesvirus 3, 120 h
[10] = reduce viral plaque formation after 5 days by 50% compared to untreated control, OKA viral strain
[11] = reduce viral plaque formation after 5 days by 50% compared to untreated control, YS viral strain
[12] = reduce viral plaque formation after 5 days by 50%, viral strain 07, TK deficient
[13] = reduce viral plaque formation after 5 days by 50%, viral strain YS, TK deficient

Compound	EC50 [1, 8] [µM]	MCC [2]	CC50 [3] [µM]	EC50 [1, 9] [µM]	EC50 [4, 9] [µM]	EC50 [5, 9] [µM]	EC50 [6, 9] [µM]	EC50 [4, 10] [µM]	EC50 [1, 11] [µM]	EC50 [5, 12] [µM]	EC50 [6, 13] [µM]	CC50 [7] [µM]
Nc1nc2c(ncn2COCCO)c(=O)[nH]1 [Acyclovir, reference compound]	1	>200 µM	> 200									
O=c1[nH]c(=O)n([C@H]2C[C@H](O)[C@@H](CO)O2)cc1/C=C/Br [BVDU, (E)-5-(2-bromo-vinyl)-2′-deoxyuridine, reference compound]				0.003								
CCCCCCCCCCc1cc2cn([C@H]3C[C@H](O)[C@@H](CO)O3)c(=O)nc2o1 [Ex2 WO 98/49177, 3-(2-deoxy-β-D-ribofuranosyl)-6-decyl-2,3-dihydrofuro [2,3-d]pyrimidin-2-one, reference compound]	0.008	>50 µM	> 50		0.015	> 50	> 50					
CCCCCCCCc1ccc(-c2cc3cn([C@H]4C[C@H](O)[C@@H](CO)O4)c(=O)nc3o2)cc1 [Example 6, 3-(2′-deoxy-β-D-ribofuranosyl)-6-(4-n-octylphenyl)-2,3-dihydrofuro[2,3-d]pyrimidin-2-one]		≧20 μM						0.015	0.005	> 20	> 20	> 200
O=c1nc2oc(-c3ccccc3)cc2cn1[C@H]1C[C@H](O)[C@@H](CO)O1 [Example 7, 3-(2′-deoxy-β-D-ribofuranosyl)-6-(phenyl)-2,3-dihydrofuro-[2,3-d]pyrimidin-2-one]		>200 µM						< 0.5	< 0.5	> 200	162	> 200
Cc1ccc(-c2cc3cn([C@H]4C[C@H](O)[C@@H](CO)O4)c(=O)nc3o2)cc1 [Example 8, 3-(2′-deoxy-β-D-ribofuranosyl)-6-(4-methylphenyl)-2,3-dihydrofuro-[2,3-d]pyrimidin-2-one]		>200 µM						< 0.5	< 0.5	103	> 200	> 200
O=c1nc2oc(-c3ccc(F)cc3)cc2cn1[C@H]1C[C@H](O)[C@@H](CO)O1 [Example 10, 3-(2′-deoxy-β-D-ribofuranosyl)-6-(4-fluorophenyl)-2,3-dihydrofuro-[2,3-d]pyrimidin-2-one]		200 µM						> 50	> 50	> 50	> 50	171
O=c1nc2oc(-c3ccc(Cl)cc3)cc2cn1[C@H]1C[C@H](O)[C@@H](CO)O1 [Example 11]	0.08	≧20 μM	> 200		0.1	> 20	> 20					
O=c1nc2oc(-c3ccc(Br)cc3)cc2cn1[C@H]1C[C@H](O)[C@@H](CO)O1 [Example 12, 3-(2′-deoxy-β-D-ribofuranosyl)-6-(4-bromophenyl)-2,3-dihydrofuro-[2,3-d]pyrimidin-2-one]	0.2	>2 µM	96		0.29	> 5	> 5					
COc1ccc(-c2cc3cn([C@H]4C[C@H](O)[C@@H](CO)O4)c(=O)nc3o2)cc1 [Example 14, 3-(2′-deoxy-β-D-ribofuranosyl)-6-(4-methoxyphenyl)-2,3-dihydrofuro-[2,3-d]pyrimidin-2-one]	0.05	200 µM	> 200			> 50	> 50					
CCOc1ccc(-c2cc3cn([C@H]4C[C@H](O)[C@@H](CO)O4)c(=O)nc3o2)cc1 [Example 15, 3-(2′-deoxy-β-D-ribofuranosyl)-6-(4-ethoxyphenyl)-2,3-dihydrofuro-[2,3-d]pyrimidin-2-one]	0.01	200 µM	> 200			50	> 50					
CCCOc1ccc(-c2cc3cn([C@H]4C[C@H](O)[C@@H](CO)O4)c(=O)nc3o2)cc1 [Example 16, 3-(2′-deoxy-β-D-ribofuranosyl)-6-(4-n-propoxyphenyl)-2,3-dihydrofuro-[2,3-d]pyrimidin-2-one]	0.002	≧200 μM	> 200			11	> 50					
CCCCCOc1ccc(-c2cc3cn([C@H]4C[C@H](O)[C@@H](CO)O4)c(=O)nc3o2)cc1 [Example 17, 3-(2′-deoxy-β-D-ribofuranosyl)-6-(4-n-pentoxyphenyl)-2,3-dihydrofuro-[2,3-d]pyrimidin-2-one]	0.002	>50 µM	> 200			3.7	> 20					
CCCCCCOc1ccc(-c2cc3cn([C@H]4C[C@H](O)[C@@H](CO)O4)c(=O)nc3o2)cc1 [Example 18, 3-(2′-deoxy-β-D-ribofuranosyl)-6(4-n-hexoxyphenyl)-2,3-dihydrofuro-[2,3-d]pyrimidin-2-one]	0.002	>20 µM	> 200			> 5	> 20					
CCCCCCCOc1ccc(-c2cc3cn([C@H]4C[C@H](O)[C@@H](CO)O4)c(=O)nc3o2)cc1 [Example 19, 3-(2′-deoxy-β-D-ribofuranosyl)-6-(4-n-heptoxyphenyl)-2,3-dihydrofuro-[2,3-d]pyrimidin-2-one]	0.002	≧50 μM	> 200			> 50	> 20					
